The values below come from patent publication US20230072683A1, “PYRIDO-PYRIMIDIN DERIVATIVES AND PHARMACEUTICAL COMPOSITION, FOR USE IN PREVENTING OR TREATING PI3 KINASE RELATED DISEASES, COMPRISING SAME AS ACTIVE INGREDIENT” (BORYUNG PHARMACEUTICAL CO., LTD, priority 2019, published 2023).

Read-outs that look alike come from different tables or passages of the source.

One may read the inhibition as the drop in the measured response relative to a control, in per cent.

Assay [1] deals with PI3K-δ (PI3K(p1108/p857) (h)) (Homo sapiens, UniProt O00329). Nature of the assay: Evaluation of inhibitory activity against PI3K-δ (HTRF kinase assay). The note with it: for inhibition at 0.01 µM: compound concentration 0.01 μM, read-out: EXP_VALUE(% Inhibition) PI3K-δ 0.01 μM; for inhibition at 0.1 µM: read-out: EXP_VALUE(% Inhibition) PI3K-δ 0.1 μM. In kind it is biochemical. The method, boiled down:
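HTRF read-out (665/620 nm ratio ×10000) used Eu-labelled anti-GST, GST-tagged GRP1 PH domain and streptavidin-allophycocyanin after EDTA/PIP3 stop.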

The target of the next assay is DNA-PK(h) (Homo sapiens, UniProt P78527). Nature of the assay: Evaluation of inhibitory activity against DNA-PK (HTRF kinase assay, GST-cMyc-p53 substrate). The format is biochemical. The note with it: for inhibition at 0.01 µM: compound concentration 0.01 μM, read-out: EXP_VALUE(% Inhibition) DNA-PK(h) 0.01 μM; for inhibition at 0.1 µM: read-out: EXP_VALUE(% Inhibition) DNA-PK(h) 0.1 μM. Put shortly:
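Human DNA-PK with 50 μM GST-cMyc-p53 substrate; reaction started with Mg/ATP, run 30 min at room temperature, stopped with EDTA. Phospho-Ser15 p53 detected by HTRF (Eu anti-phospho-Ser15, d2 anti-GST), signal = 10000×(Em 665/Em 620).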
For orientation: In TR-FRET formats the signal depends on donor and acceptor labels being close together.

Sequence of PI3K-δ (PI3K(p1108/p857) (h)) (O00329 whole entry, the tested form may be a part): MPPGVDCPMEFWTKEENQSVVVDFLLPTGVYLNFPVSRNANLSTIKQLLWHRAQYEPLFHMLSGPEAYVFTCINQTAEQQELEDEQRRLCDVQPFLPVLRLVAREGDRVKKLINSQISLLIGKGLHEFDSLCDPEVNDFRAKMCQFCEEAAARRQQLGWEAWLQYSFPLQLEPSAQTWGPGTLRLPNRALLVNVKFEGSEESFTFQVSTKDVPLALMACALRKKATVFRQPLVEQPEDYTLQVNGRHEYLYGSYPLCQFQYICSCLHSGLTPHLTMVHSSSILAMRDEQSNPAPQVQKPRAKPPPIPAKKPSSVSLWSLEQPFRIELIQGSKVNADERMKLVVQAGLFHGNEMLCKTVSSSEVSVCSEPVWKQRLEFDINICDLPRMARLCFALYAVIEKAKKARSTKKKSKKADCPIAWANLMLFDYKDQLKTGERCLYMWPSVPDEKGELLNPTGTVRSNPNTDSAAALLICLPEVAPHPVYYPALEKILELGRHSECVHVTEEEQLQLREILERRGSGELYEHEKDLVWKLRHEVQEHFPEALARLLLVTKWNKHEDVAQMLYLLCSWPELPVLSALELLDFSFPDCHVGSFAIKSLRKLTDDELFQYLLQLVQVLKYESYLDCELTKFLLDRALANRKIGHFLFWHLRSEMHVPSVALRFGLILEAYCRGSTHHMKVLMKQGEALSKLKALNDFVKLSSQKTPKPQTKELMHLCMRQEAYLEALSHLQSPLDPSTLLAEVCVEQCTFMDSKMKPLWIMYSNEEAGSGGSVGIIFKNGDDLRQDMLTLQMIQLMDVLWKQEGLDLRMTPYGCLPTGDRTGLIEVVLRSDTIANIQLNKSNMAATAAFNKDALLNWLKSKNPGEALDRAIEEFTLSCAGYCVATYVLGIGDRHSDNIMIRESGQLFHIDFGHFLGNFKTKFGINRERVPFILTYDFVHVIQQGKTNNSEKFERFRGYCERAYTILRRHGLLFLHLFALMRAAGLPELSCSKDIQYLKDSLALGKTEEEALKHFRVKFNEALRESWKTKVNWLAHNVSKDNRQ
Sequence of PI3K-δ (PI3K(p1108/p857) (h)) (P27986 whole entry partner, the tested form may be a part): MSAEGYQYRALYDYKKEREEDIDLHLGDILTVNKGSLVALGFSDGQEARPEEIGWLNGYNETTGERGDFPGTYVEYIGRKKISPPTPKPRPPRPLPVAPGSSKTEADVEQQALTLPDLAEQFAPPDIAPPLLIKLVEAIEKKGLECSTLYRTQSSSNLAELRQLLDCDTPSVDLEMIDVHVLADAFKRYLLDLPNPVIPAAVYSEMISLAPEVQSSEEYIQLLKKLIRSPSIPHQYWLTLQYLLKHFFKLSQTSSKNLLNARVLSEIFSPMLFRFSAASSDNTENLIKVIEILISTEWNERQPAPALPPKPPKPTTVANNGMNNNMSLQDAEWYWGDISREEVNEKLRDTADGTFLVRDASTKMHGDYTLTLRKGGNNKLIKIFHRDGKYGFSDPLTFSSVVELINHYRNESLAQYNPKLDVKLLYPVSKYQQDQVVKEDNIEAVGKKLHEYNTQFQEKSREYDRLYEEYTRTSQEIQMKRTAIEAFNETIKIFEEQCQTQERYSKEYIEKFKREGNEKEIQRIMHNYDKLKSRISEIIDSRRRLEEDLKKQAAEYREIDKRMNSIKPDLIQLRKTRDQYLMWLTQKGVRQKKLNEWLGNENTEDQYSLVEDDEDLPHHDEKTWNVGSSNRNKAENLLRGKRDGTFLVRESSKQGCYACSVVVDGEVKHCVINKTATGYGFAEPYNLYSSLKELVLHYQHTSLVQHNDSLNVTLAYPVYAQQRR

On to `C[C@H](Nc1ncnc2[nH]ccc(=O)c12)c1c(Cl)c2cccc(-c3cnc(OCC(F)(F)F)nc3)c2c(=O)n1-c1ccccc1` [Example 184, (S)-4-((1-(4-chloro-1-oxo-2-phenyl-8-(2-(2,2,2-trifluoroethoxy)pyrimidin-5-yl)-1,2-dihydroisoquinolin-3-yl)ethyl)amino)pyrido[2,3-d]pyrimidin-5(8H)-one], for which the inhibition at 0.01 µM came out at 78% in assay [1] and 38% on DNA-PK(h).
The like results for `COc1ncc(-c2cccc3c(Cl)c([C@H](C)Nc4ncnc5[nH]ccc(=O)c45)n(-c4ccccc4)c(=O)c23)cc1[N+](=O)[O-]` [Example 61, (S)-4-((1-(4-chloro-8-(6-methoxy-5-nitropyridin-3-yl)-1-oxo-2-phenyl-1,2-dihydroisoquinolin-3-yl)ethyl)amino)pyrido[2,3-d]pyrimidin-5(8H)-one] were, in that order, 89% and 67%.
Take `CCc1cccc2c(Cl)c([C@H](C)Nc3ncnc4[nH]ccc(=O)c34)n(-c3ccccc3)c(=O)c12` [Example 354, (S)-4-((1-(4-chloro-8-ethyl-1-oxo-2-phenyl-1,2-dihydroisoquinolin-3-yl)ethyl)amino)pyrido[2,3-d]pyrimidin-5(8H)-one]: the results for the inhibition at 0.01 µM (in assay [1]; on DNA-PK(h)) were 95% and 63%, respectively. The values for the inhibition at 0.1 µM (in assay [1] (compound concentration 0.1 μM); on DNA-PK(h) (compound concentration 0.1 μM)) were 106% and 94%, respectively.
As for `COc1ncc(-c2cccc3c(Cl)c([C@H](C)Nc4ncnc5[nH]ccc(=O)c45)n(-c4ccccc4)c(=O)c23)cc1Cl` [Example 187, (S)-4-((1-(4-chloro-8-(5-chloro-6-methoxypyridin-3-yl)-1-oxo-2-phenyl-1,2-dihydroisoquinolin-3-yl)ethyl)amino)pyrido[2,3-d]pyrimidin-5(8H)-one], the inhibition at 0.01 µM in assay [1] was found to be 79%; on DNA-PK(h) it was 45%.
The like results for `Cc1csc(-c2cccc3c(Cl)c([C@H](C)Nc4ncnc5[nH]ccc(=O)c45)n(-c4ccccc4)c(=O)c23)c1` [Example 242, (S)-4-((1-(4-chloro-8-(4-methylthiophen-2-yl)-1-oxo-2-phenyl-1,2-dihydroisoquinolin-3-yl)ethyl)amino)pyrido[2,3-d]pyrimidin-5(8H)-one] were, in that order, 69% and 65%.
The like results for `C[C@H](Nc1ncnc2[nH]ccc(=O)c12)c1c(Cl)c2cccc(-c3cnc(OCc4ccccc4)nc3)c2c(=O)n1-c1ccccc1` [Example 146, (S)-4-((1-(8-(2-(benzyloxy)pyrimidin-5-yl)-4-chloro-1-oxo-2-phenyl-1,2-dihydroisoquinolin-3-yl)ethyl)amino)pyrido[2,3-d]pyrimidin-5(8H)-one] were, in that order, 84% and 35%.
For the compound `C[C@H](Nc1ncnc2[nH]ccc(=O)c12)c1c(Cl)c2cccc(S(=O)(=O)c3ccccn3)c2c(=O)n1-c1ccccc1` [Example 414, (S)-4-((1-(4-chloro-1-oxo-2-phenyl-8-(pyridin-2-ylsulfonyl)-1,2-dihydroisoquinolin-3-yl)ethyl)amino)pyrido[2,3-d]pyrimidin-5(8H)-one], the inhibition at 0.1 µM in assay [1] (compound at 0.1 μM) came out at 44%; at DNA-PK(h) (compound at 0.1 μM), 32%.
Consider `C[C@H](Nc1ncnc2[nH]ccc(=O)c12)c1c(Cl)c2cccc(-c3ccc(S(C)(=O)=O)cc3)c2c(=O)n1-c1ccccc1` [Example 165, (S)-4-((1-(4-chloro-8-(4-(methylsulfonyl)phenyl)-1-oxo-2-phenyl-1,2-dihydroisoquinolin-3-yl)ethyl)amino)pyrido[2,3-d]pyrimidin-5(8H)-one], for which the inhibition at 0.01 µM in assay [1] turned out to be 96%; on DNA-PK(h), 91%.
As to `C[C@H](Nc1ncnc2[nH]ccc(=O)c12)c1c(Cl)c2cccc(-c3cc(F)cc(F)c3)c2c(=O)n1-c1ccccc1` [Example 124, (S)-4-((1-(4-chloro-8-(3,5-difluorophenyl)-1-oxo-2-phenyl-1,2-dihydroisoquinolin-3-yl)ethyl)amino)pyrido[2,3-d]pyrimidin-5(8H)-one], the inhibition at 0.01 µM turned out to be 83% in assay [1] and 44% on DNA-PK(h). Also, the results for the inhibition at 0.1 µM (in assay [1] (compound concentration 0.1 μM); on DNA-PK(h) (compound concentration 0.1 μM)) were 99% and 86%, respectively.
In the case of `Cc1nc(-c2ccc(-c3cccc4c(Cl)c([C@H](C)Nc5ncnc6[nH]ccc(=O)c56)n(-c5ccccc5)c(=O)c34)cc2)no1` [Example 160, (S)-4-((1-(4-chloro-8-(4-(5-methyl-1,2,4-oxadiazol-3-yl)phenyl)-1-oxo-2-phenyl-1,2-dihydroisoquinolin-3-yl)ethyl)amino)pyrido[2,3-d]pyrimidin-5(8H)-one], the inhibition at 0.01 µM worked out at 94% in assay [1] and 74% at DNA-PK(h).
The like results for `C[C@H](Nc1ncnc2[nH]ccc(=O)c12)c1c(Cl)c2cccc(N(C)c3ccccn3)c2c(=O)n1-c1ccccc1` [Example 349, (S)-4-((1-(4-chloro-8-(methyl(pyridin-2-yl)amino)-1-oxo-2-phenyl-1,2-dihydroisoquinolin-3-yl)ethyl)amino)pyrido[2,3-d]pyrimidin-5(8H)-one] were, in that order, 72% and 15%.
With `C[C@H](Nc1ncnc2[nH]ccc(=O)c12)c1c(Cl)c2cccc(-c3cccnc3)c2c(=O)n1-c1ccccc1` [Example 4, (S)-4-((1-(4-chloro-1-oxo-2-phenyl-8-(pyridin-3-yl)-1,2-dihydroisoquinolin-3-yl)ethyl)amino)pyrido[2,3-d]pyrimidin-5(8H)-one], the inhibition at 0.01 µM amounted to 101% in assay [1] and 53% at DNA-PK(h). The inhibition at 0.1 µM was 109% in assay [1] (compound concentration 0.1 μM) and 99% on DNA-PK(h) (compound concentration 0.1 μM).
As for `COc1cc(-c2cccc3c(Cl)c([C@H](C)Nc4ncnc5[nH]ccc(=O)c45)n(-c4ccccc4)c(=O)c23)cc(OC)c1C` [Example 177, (S)-4-((1-(4-chloro-8-(3,5-dimethoxy-4-methylphenyl)-1-oxo-2-phenyl-1,2-dihydroisoquinolin-3-yl)ethyl)amino)pyrido[2,3-d]pyrimidin-5(8H)-one], the results for the inhibition at 0.01 µM (in assay [1]; on DNA-PK(h)) were 28% and 54%, respectively.
The like results for `CNc1ccc(-c2cccc3c(Cl)c([C@H](C)Nc4ncnc5[nH]ccc(=O)c45)n(-c4ccccc4)c(=O)c23)cn1` [Example 246, (S)-4-((1-(4-chloro-8-(6-(methylamino)pyridin-3-yl)-1-oxo-2-phenyl-1,2-dihydroisoquinolin-3-yl)ethyl)amino)pyrido[2,3-d]pyrimidin-5(8H)-one] were, in that order, 85% and 79%.
For `C[C@H](Nc1ncnc2[nH]ccc(=O)c12)c1c(Cl)c2cccc(S(=O)(=O)c3ccc(F)cc3)c2c(=O)n1-c1ccccc1` [Example 399, (S)-4-((1-(4-chloro-8-((4-fluorophenyl)sulfonyl)-1-oxo-2-phenyl-1,2-dihydroisoquinolin-3-yl)ethyl)amino)pyrido[2,3-d]pyrimidin-5(8H)-one], the inhibition at 0.1 µM in assay [1] (compound at 0.1 μM) is 92%; on DNA-PK(h) (compound at 0.1 μM), 23%.
Take `COc1cccc2c(Cl)c([C@H](C)Nc3ncnc4[nH]ccc(=O)c34)n(-c3ccccc3)c(=O)c12` [Example 365, (S)-4-((1-(4-chloro-8-methoxy-1-oxo-2-phenyl-1,2-dihydroisoquinolin-3-yl)ethyl)amino)pyrido[2,3-d]pyrimidin-5(8H)-one]: the inhibition at 0.01 µM was determined as 31% in assay [1] and 28% on DNA-PK(h). In addition, the inhibition at 0.1 µM was determined as 84% in assay [1] (compound concentration 0.1 μM) and 65% at DNA-PK(h) (compound concentration 0.1 μM).
The like results for `C[C@H](Nc1ncnc2[nH]ccc(=O)c12)c1c(Cl)c2cccc(-c3ccc(SC(C)(C)C)cc3)c2c(=O)n1-c1ccccc1` [Example 144, (S)-4-((1-(8-(4-(tert-butylthio)phenyl)-4-chloro-1-oxo-2-phenyl-1,2-dihydroisoquinolin-3-yl)ethyl)amino)pyrido[2,3-d]pyrimidin-5(8H)-one] were, in that order, 17%, 4%, 72% and 48%.
The like results for `C[C@H](Nc1ncnc2[nH]ccc(=O)c12)c1c(Cl)c2cccc(-c3cccc(F)c3F)c2c(=O)n1-c1ccccc1` [Example 129, (S)-4-((1-(4-chloro-8-(2,3-difluorophenyl)-1-oxo-2-phenyl-1,2-dihydroisoquinolin-3-yl)ethyl)amino)pyrido[2,3-d]pyrimidin-5(8H)-one] were, in that order, 75%, 56%, 67% and 91%.
The like results for `C[C@H](Nc1ncnc2[nH]ccc(=O)c12)c1c(Cl)c2cccc(C(N)=O)c2c(=O)n1-c1ccccc1` [Example 291, (S)-4-chloro-1-oxo-3-(1-((5-oxo-5,8-dihydropyrido[2,3-d]pyrimidin-4-yl)amino)ethyl)-2-phenyl-1,2-dihydroisoquinoline-8-carboxamide] were, in that order, 91%, 31%, 101% and 78%.
`C[C@H](Nc1ncnc2[nH]ccc(=O)c12)c1c(Cl)c2cccc(NC(=O)C(C)(C)C)c2c(=O)n1-c1ccccc1` [Example 295, (S)—N-(4-chloro-1-oxo-3-(1-((5-oxo-5,8-dihydropyrido[2,3-d]pyrimidin-4-yl)amino)ethyl)-2-phenyl-1,2-dihydroisoquinolin-8-yl) pivalamide]: the inhibition at 0.01 µM in assay [1] was 24%; on DNA-PK(h) it was 56%.
